This experiment deals with SCLC cells. Type of experiment: cell-based, human.
On to `CN1CCCC1c1cccnc1` (stereo not drawn) [nicotine], for which the “effect on proliferation / rate of growth of SCLC cells” value (“effect on proliferation / rate” below) is “increase the rate of growth”.

In the case of alpha-bungarotoxin, the “effect on proliferation / rate” value is “slow down or suppress proliferation”.

For alpha-cobratoxin, the “effect on proliferation / rate” value is recorded as “slow down or suppress proliferation”.

For the origin of these results see patent US20020150975A1 (priority 2000, published 2002).
